Measured values from patent US20180049996A1, “THERAPEUTIC AGENT FOR CHRONIC RESPIRATORY DISEASE AND COMPOSITION FOR INHIBITING CARDIAC FIBROSIS” (NIPPON HYPOX LABORATORIES INCORPORATED, priority 2015, published 2018).

Assays:
[1] = system: Pulmonary Fibrosis Induced by Bleomycin; assay: Bronchoalveolar lavage (BAL) examination, cell numbers, pulmonary fibrosis induced by bleomycin; type: in vivo, male SD rats
Protocol: Bleomycin is used to produce disease-model animals of interstitial pneumonia. The bleomycin and 2,3,5-trimethylhydroquinone-1-hexyl ether (HTHQ) as the hydroquinone derivative represented by the general formula (1) described above of the present invention were simultaneously administered to male SD rats of 10 week old after birth to examine the effect of the action. The test groups consisted of the control group to which sterile saline was administered; test group 1 to which bleomycin (7.5 mg/kg body weight) alone was administered; test group 2 to which bleomycin (7.5 mg/kg body weight) and HTHQ (50 mg/kg body weight/day) were administered in combination; and test group 3 to which bleomycin (7.5 mg/kg body weight) and HTHQ (200 mg/kg body weight/day) were administered in combination.
In test groups 1 to 3, bleomycin was orally administered in a single dose. In test groups 2 and 3, 2,3,5-trimethylhydroquinone-1-hexyl ether (HTHQ) was daily orally administered for 10 or 20 days starting from 24 h after the administration of bleomycin. In test group 1, olive oil, which was used as a solvent of HTHQ, was daily orally administered at 10 mL/kg/day starting from 24 h after the administration of bleomycin. The number of animals in each group was 16. 8 animals of each group were sacrificed on days 10 and 20 after the administration of bleomycin and measurement of body weight, lung autopsy, histopathologic examination of lungs and bronchoalveolar lavage examination were conducted.
Bronchoalveolar lavage (BAL) examination was conducted on the rats in the control group and the test groups. When interstitial pneumonia developed, the infiltration of inflammatory cells occurs and thus the total cell number in BAL fluid increases. The total cell numbers on day 10 after the administration of bleomycin were as follows: 2×10^5 cells in the control group, 9×10^5 cells in test group 1 (the bleomycin-single administration group), 6.5×10^5 cells in test group 2 (the low-dose HTHQ-administered group, 50 mg/kg body weight), and 10.5×10^5 cells in test group 3 (the high-dose HTHQ-administered group, 200 mg/kg body weight), and thus the effect of HTHQ administration was not found on day 10 after the administration of bleomycin.
When interstitial pneumonia developed, the infiltration of alveolar macrophages to interstitial tissue occurs and thus the alveolar macrophage number in BAL fluid increases. The alveolar macrophage numbers on day 10 after the administration of bleomycin were as follows: 1.45×10^5 cells in the control group, 4.5×10^5 cells in test group 1 (the bleomycin-single administration group), 1.99×10^5 cells in test group 2 (the low-dose HTHQ-administered group), and 3.24×10^5 cells in test group 3 (the high-dose HTHQ-administered group), and thus the effect of HTHQ administration was not found on day 10 after the administration of bleomycin. However, on day 20 after the administration, while the alveolar macrophage number of the bleomycin-single administration group was 5.5×10^5 cells, the alveolar macrophage number of the low-dose HTHQ-administered group was 3×10^5 cells and the alveolar macrophage number of the high-dose HTHQ-administered group was decreased to 2×10^5 cells.
When interstitial pneumonia developed, the infiltration of inflammatory cells of neutrophils to interstitial tissue occurs and thus the neutrophil number in BAL fluid increases. The neutrophil numbers on day 10 after the administration of bleomycin were as follows: 1.04×10^4 cells in the control group, 2.28×10^5 cells in test group 1 (the bleomycin-single administration group), 1.44×10^5 cells in test group 2 (the low-dose HTHQ-administered group), and 5.83×10^5 cells in test group 3 (the high-dose HTHQ-administered group), and thus the effect of HTHQ was not found on day 10 after the administration of bleomycin. […]

[2] = system: Creatine phosphokinase (CPK); assay: Creatine phosphokinase (CPK) value in blood, myocardial disorder induced by doxorubicin; type: in vivo, female SD rats; conditions: Test group 2: doxorubicin + HTHQ 50 mg/kg; day 14; p<0.05
Protocol: Doxorubicin is used to produce disease-model animals of cardiomyopathy. The doxorubicin and 2,3,5-trimethylhydroquinone-1-hexyl ether (HTHQ) as the hydroquinone derivative represented by the general formula (1) described above of the present invention were simultaneously administered to female SD rats of 4 week old after birth to examine the effect of the action. The test groups consisted of the control group to which sterile saline was administered; test group 1 to which doxorubicin (13 mg/kg body weight) alone was administered; test group 2 to which doxorubicin (13 mg/kg body weight) and HTHQ (50 mg/kg body weight) were administered in combination; and test group 3 to which doxorubicin (13 mg/kg body weight), HTHQ (50 mg/kg body weight) and recombinant human erythropoietin (400 IU/kg body weight) were administered in combination. The recombinant human erythropoietin (rHuEPO) is mainly used in the treatment of renal anemia etc., and has the effect to protect myocardium. The test group 3 is used to confirm the presence or absence of the inhibitory effect brought about by combining HTHQ and rHuEPO on myocardial disorder.
Doxorubicin was orally administered in a single dose to the rats in test groups 1 to 3. […]

[3] = Test group 2: bleomycin + HTHQ 50 mg/kg/day oral, day 10
[4] = Test group 3: bleomycin + HTHQ 200 mg/kg/day oral, day 10
[5] = bleomycin + HTHQ 50 mg/kg/day oral (low-dose), day 20
[6] = bleomycin + HTHQ 200 mg/kg/day oral (high-dose), day 20

CCCCCCOc1cc(C)c(O)c(C)c1C [HTHQ, 2,3,5-trimethylhydroquinone-1-hexyl ether]
alveolar macrophage number in BAL fluid [1, 3]: 1.99×10^5 cells
lymphocyte number in BAL fluid [1, 3]: 3.07×10^5 cells
neutrophil number in BAL fluid [1, 3]: 1.44×10^5 cells
total cell number in BAL fluid [1, 3]: 6.5×10^5 cells
alveolar macrophage number in BAL fluid [1, 4]: 3.24×10^5 cells
lymphocyte number in BAL fluid [1, 4]: 1.43×10^5 cells
neutrophil number in BAL fluid [1, 4]: 5.83×10^5 cells
total cell number in BAL fluid [1, 4]: 10.5×10^5 cells
alveolar macrophage number in BAL fluid [1, 5]: 3×10^5 cells
lymphocyte number in BAL fluid [1, 5]: 0.53×10^5 cells
neutrophil number in BAL fluid [1, 5]: 4.34×10^5 cells
total cell number in BAL fluid [1, 5]: 7.9×10^5 cells
alveolar macrophage number in BAL fluid [1, 6]: 2×10^5 cells
lymphocyte number in BAL fluid [1, 6]: 0.3×10^5 cells
neutrophil number in BAL fluid [1, 6]: 1.49×10^5 cells
total cell number in BAL fluid [1, 6]: 3.8×10^5 cells
creatine phosphokinase (CPK) value [2]: significantly lower compared to that of test group 1
